Results taken from ChEMBL document CHEMBL4422630, “Identification of substituted 5-membered heterocyclic compounds as potential anti-leukemic agents” (Eur J Med Chem, 2019).
Each block holds one compound with its values, some of them ahead of it. Active and inactive are the calls of the source. No cut-off for these calls is given here.

How the values were obtained:
UoC-B1 = assay: Antiproliferative activity against human UOCB1 assessed as reduction in cell viability after 72 hrs by CellTiter-Glo assay; assay type: functional, cell-based; settings: UoC-B1, 72 h
[1] = Therapeutic index, ratio of EC50 for human BJ cells to EC50 for mouse B-ALL cells expressing wild type BCR-ABL; assay type: toxicity; settings: human BJ cells versus mouse B-ALL cells expressing wild type BCR-ABL; read-out: Ratio EC50
BJ = assay: Antiproliferative activity against human BJ assessed as cell viability after 72 hrs by CellTiter-Glo assay; assay type: functional, cell-based
B-ALL [2] = assay: Antiproliferative activity against mouse B-ALL BCR-ABL double knockout cells assessed as reduction in cell viability after 72 hrs by CellTiter-Glo assay; assay type: functional, cell-based
MV4-11 = assay: Antiproliferative activity against human MV411 assessed as reduction in cell viability after 72 hrs by CellTiter-Glo assay; assay type: functional, cell-based; settings: MV4-11, 72 h
NALM-6 = assay: Antiproliferative activity against human NALM6 assessed as reduction in cell viability after 72 hrs by CellTiter-Glo assay; assay type: functional, cell-based; settings: NALM-6, 72 h
B-ALL [3] = assay: Antiproliferative activity against mouse B-ALL cells expressing wild type BCR-ABL assessed as reduction in cell viability after 72 hrs by CellTiter-Glo assay; assay type: functional, cell-based
SUP-B15 [4] = assay: Antiproliferative activity against human SUP-B15 assessed as reduction in cell viability after 72 hrs by CellTiter-Glo assay; assay type: functional, cell-based; settings: SUP-B15, 72 h
KOPN-8 [5] = assay: Antiproliferative activity against human KOPN8 assessed as reduction in cell viability after 72 hrs by CellTiter-Glo assay; assay type: functional, cell-based; settings: KOPN-8, 72 h
K562 = assay: Antiproliferative activity against human K562 assessed as reduction in cell viability after 72 hrs by CellTiter-Glo assay; assay type: functional, cell-based; settings: K562, 72 h
[6] = Protein binding in human plasma; assay type: ADME, cell-free; settings: read-out: PPB (converted)
SUP-B15 [7] = assay: Induction of apoptosis in human SUP-B15 cells assessed as late apoptotic cells level after 24 hrs by Annexin V and propidium iodide staining based flow cytometry (reference value: 83%); assay type: functional
[8] = Half life in human microsomes; assay type: ADME, Microsome
B-ALL [9] = assay: Induction of apoptosis in mouse B-ALL BCR-ABL double knockout cells assessed as increase in caspase 3/7 activity after 24 hrs by caspase-Glo 3/7 reagent based luminescence assay; assay type: functional, cell-based
SUP-B15 [10] = assay: Induction of apoptosis in human SUP-B15 cells assessed as decrease in cell viability at 5 uM after 24 hrs by Annexin V/propidium iodide staining-based flow cytometric analysis; assay type: functional
SUP-B15 [11] = assay: Induction of apoptosis in human SUP-B15 cells assessed as increase in caspase 3/7 activity after 24 hrs by caspase-Glo 3/7 reagent based luminescence assay; assay type: functional, cell-based
[12] = Intrinsic clearance in mouse microsomes; assay type: ADME, Microsome
[13] = Permeability of compound at pH 7.4 assessed as drug retention by PAMPA; assay type: ADME
[14] = Efflux ratio of apparent permeability across basolateral to apical side over apical to basolateral side in human Caco2 cells; assay type: ADME, cell-based; settings: Caco-2
[15] = Intrinsic clearance in human microsomes; assay type: ADME, Microsome
MDA-MB-231 [16] = assay: Cytotoxicity against human MDA-MB-231 cells up to 30 uM after 24 hrs by propidium iodide staining-based fluorescence assay; assay type: functional, cell-based
SUP-B15 [17] = assay: Induction of apoptosis in human SUP-B15 cells assessed as late apoptotic cells level after 24 hrs by Annexin V and propidium iodide staining based flow cytometry (reference value: 13.5%); assay type: functional
[18] = Half life in mouse microsomes; assay type: ADME, Microsome
MDA-MB-231 [19] = assay: Cytotoxicity against human MDA-MB-231 cells at 30 uM after 24 hrs by propidium iodide staining-based fluorescence assay; assay type: functional, cell-based
KOPN-8 [20] = assay: Cell cycle arrest in human KOPN8 cells assessed as reduction in accumulation of cells at G1/G0 phase at 5 uM after 24 hrs by propidium iodide staining-based flow cytometric analysis; assay type: functional
SUM149PT = assay: Cytotoxicity against human SUM149 cells at 1 uM after 24 hrs by propidium iodide staining-based fluorescence assay relative to control; assay type: functional, cell-based
SUP-B15 [21] = assay: Induction of apoptosis in human SUP-B15 cells assessed as decrease in cell viability at […] after 24 hrs by ApoTox-Glo triplex assay; assay type: functional, cell-based
[22] = Apparent permeability of compound form basolateral to apical side in human Caco2 cells; assay type: ADME, cell-based; settings: Caco-2
[23] = Half life in mouse plasma; assay type: ADME, cell-free
KOPN-8 [24] = assay: Cell cycle arrest in human KOPN8 cells assessed as increase in accumulation of cells at S phase at 5 uM after 24 hrs by propidium iodide staining-based flow cytometric analysis; assay type: functional
[25] = Half life in human plasma; assay type: ADME, cell-free
[26] = Half life in simulated gastric fluid; assay type: ADME
SUP-B15 [27] = assay: Cytotoxicity in human SUP-B15 cells assessed as decrease in cell viability after 24 hrs by bis-AAF-RF110 dye based assay; assay type: functional
KOPN-8 [28] = assay: Induction of apoptosis in human KOPN8 cells assessed as decrease in cell viability at 5 uM after 24 hrs by Annexin V/propidium iodide staining-based flow cytometric analysis; assay type: functional
KOPN-8 [29] = assay: Induction of apoptosis in human KOPN8 cells assessed as late apoptotic cells level after 24 hrs by Annexin V and propidium iodide staining based flow cytometry (reference value: 2%); assay type: functional
[30] = Apparent permeability of compound form apical to basolateral side in human Caco2 cells; assay type: ADME, cell-based; settings: Caco-2
[31] = Permeability of compound at pH 7.4 by PAMPA; assay type: ADME; settings: read-out: Peff
KOPN-8 [32] = assay: Induction of apoptosis in human KOPN8 cells assessed as late apoptotic cells level after 24 hrs by Annexin V and propidium iodide staining based flow cytometry (reference value: 96.4%); assay type: functional
[33] = Protein binding in mouse plasma; assay type: ADME, cell-free; settings: read-out: PPB (converted)

EC50 (MV4-11): 0.65 µM
SMILES: COc1ccc(O)c(-c2cc(-c3ccc(Cl)cc3)[nH]n2)c1
EC50 (UoC-B1): 10.6 µM | selectivity ratio [1]: > 5 | EC50 (BJ): > 43.3 µM | EC50 (B-ALL [2]): 27.8 µM | EC50 (NALM-6): > 21.6 µM | EC50 (B-ALL [3]): 8.04 µM | EC50 (SUP-B15 [4]): 5.23 µM | EC50 (KOPN-8 [5]): 1.4 µM

EC50 (K562): 7.33 µM | EC50 (MV4-11): 13.7 µM
SMILES: c1ccc2[nH]c(-c3ccc(-c4nc5ccccc5[nH]4)nc3)nc2c1
EC50 (UoC-B1): > 43.3 µM | selectivity ratio [1]: > 5 | EC50 (BJ): > 43.3 µM | EC50 (B-ALL [2]): 34.2 µM | EC50 (NALM-6): 2.47 µM | EC50 (B-ALL [3]): 7.89 µM | EC50 (SUP-B15 [4]): 1.81 µM | EC50 (KOPN-8 [5]): 1.78 µM

fraction unbound [6]: 0.003 | half-life [8]: 3.56 h | CLint scaled [12]: 10.5 mL/min/kg | permeability [13]: 74.6% | efflux ratio [14]: 20.1 | CLint scaled [15]: 5.85 mL/min/kg | half-life [18]: 5.44 h | EC50 (K562): > 10 µM | Papp B→A [22]: 4.13 ×10⁻⁶ cm/s | half-life [23]: > 48 h | half-life [25]: > 48 h | half-life [26]: > 48 h | EC50 (MV4-11): 0.716 µM | Papp A→B [30]: 0.206 ×10⁻⁶ cm/s | Papp [31]: 204 ×10⁻⁶ cm/s | fraction unbound [33]: 0.002
SMILES: O=C(Cc1ccccc1)Nc1ccc(-c2nc3cc(NC(=O)Cc4ccccc4)ccc3[nH]2)cc1
Activity (SUP-B15 [7]): 24.2% | Activity (B-ALL [9]): inactive | Activity (SUP-B15 [10]): Active | Activity (SUP-B15 [11]): Active | EC50 (UoC-B1): > 43.3 µM | Activity (MDA-MB-231 [16]): inactive | Activity (SUP-B15 [17]): 18.6% | selectivity ratio [1]: 13 | Activity (MDA-MB-231 [19]): Active | Activity (KOPN-8 [20]): Active | Activity (SUM149PT): Active | Activity (SUP-B15 [21]): Active | EC50 (BJ): 8.35 µM | Activity (KOPN-8 [24]): Active | Activity (SUP-B15 [27]): Active | Activity (KOPN-8 [28]): Active | EC50 (B-ALL [2]): 0.784 µM | Activity (KOPN-8 [29]): 18.5% | EC50 (NALM-6): 4.24 µM | EC50 (B-ALL [3]): 0.635 µM | EC50 (SUP-B15 [4]): 0.27 µM | Activity (KOPN-8 [32]): 80.1% | EC50 (KOPN-8 [5]): 0.18 µM

SMILES: CS(=O)(=O)c1ccc(-c2cccc3c2OC(CNC(=O)c2ccccc2F)C3)cc1 (configuration not stated)
EC50 (UoC-B1): > 43.3 µM | selectivity ratio [1]: > 5 | EC50 (BJ): > 43.3 µM | EC50 (B-ALL [2]): 36.4 µM | EC50 (NALM-6): 1.75 µM | EC50 (B-ALL [3]): 8.88 µM | EC50 (SUP-B15 [4]): > 43.3 µM | EC50 (KOPN-8 [5]): > 43.3 µM

SMILES: COc1ccc(O)c(-c2cc(-c3cc(Cl)ccc3O)[nH]n2)c1
EC50 (UoC-B1): 13.6 µM | selectivity ratio [1]: 5 | EC50 (BJ): 25.1 µM | EC50 (B-ALL [2]): 11.2 µM | EC50 (NALM-6): 0.005 µM | EC50 (B-ALL [3]): 4.94 µM | EC50 (SUP-B15 [4]): > 43.3 µM | EC50 (KOPN-8 [5]): 15.8 µM

EC50 (K562): 1.07 µM | EC50 (MV4-11): 0.85 µM
SMILES: CCN(CC)c1ccc(-n2cnnc2-c2cccc(O)c2)cc1
EC50 (UoC-B1): 1.78 µM | selectivity ratio [1]: > 24 | EC50 (BJ): > 49.2 µM | EC50 (B-ALL [2]): > 49.1 µM | EC50 (NALM-6): 1.06 µM | EC50 (B-ALL [3]): 2.03 µM | EC50 (SUP-B15 [4]): > 49.1 µM | EC50 (KOPN-8 [5]): > 49.1 µM

SMILES: NC(=O)c1sccc1Nc1[nH]c(Nc2cccc(OC(F)(F)F)c2)nc2nncc1-2
EC50 (UoC-B1): 12.9 µM | selectivity ratio [1]: 5 | EC50 (BJ): 17 µM | EC50 (B-ALL [2]): 14.6 µM | EC50 (NALM-6): 0.005 µM | EC50 (B-ALL [3]): 3.14 µM | EC50 (SUP-B15 [4]): > 43.3 µM | EC50 (KOPN-8 [5]): 13.1 µM

SMILES: CCCSc1ccc2nc(NC(=O)OC)[nH]c2c1 [ALBENDAZOLE]
permeability [13]: 44.1% | Papp [31]: 284 ×10⁻⁶ cm/s

EC50 (MV4-11): > 10 µM
SMILES: COc1ccc(O)c(C(=O)NCCc2ccc(-c3cnc(C)s3)cc2)c1
EC50 (UoC-B1): 24.7 µM | EC50 (BJ): 8.25 µM | EC50 (B-ALL [2]): 22.7 µM | EC50 (NALM-6): 1.01 µM | EC50 (B-ALL [3]): 9.49 µM | EC50 (SUP-B15 [4]): > 43.3 µM | EC50 (KOPN-8 [5]): 36.3 µM
